Consider 2 molecules from US12286405B2, “Scalable synthesis of dual-target inhibitor of cannabinoid-1 receptor and inducible nitric oxide synthase” (THE UNITED STATES OF AMERICA, AS REPRESENTED BY THE …, priority 2019, dated 2025).

Converted amounts (≈) assume the structure as drawn.

Data set [1] is described as follows: solubility of rac-1 in organic solvent (dichloromethane). The format is physicochemical. The conditions noted are these: organic solvent or mixture. An excerpt: To overcome this obstacle, the present inventors discovered an enantioselective approach to (S,1E,NE)-N-(1-aminoethylidene)-3-(4-chlorophenyl)-4-phenyl-N′-((4-(trifluoromethyl)phenyl)sulfonyl)-4,5-dihydro-1H-pyrazole-1-carboximidamide (S)-1 in high optical purity.

Data set [2] concerns animal models of fibrosis. Conditions: mediated by iNOS inhibition and CB1R antagonism; cited from earlier work.
Another data set addresses CB1R (Homo sapiens, UniProt P21554). Conditions: in vivo; mediated by the CB1R antagonism; cited from earlier work.

CB1R, sequence (P21554 whole entry): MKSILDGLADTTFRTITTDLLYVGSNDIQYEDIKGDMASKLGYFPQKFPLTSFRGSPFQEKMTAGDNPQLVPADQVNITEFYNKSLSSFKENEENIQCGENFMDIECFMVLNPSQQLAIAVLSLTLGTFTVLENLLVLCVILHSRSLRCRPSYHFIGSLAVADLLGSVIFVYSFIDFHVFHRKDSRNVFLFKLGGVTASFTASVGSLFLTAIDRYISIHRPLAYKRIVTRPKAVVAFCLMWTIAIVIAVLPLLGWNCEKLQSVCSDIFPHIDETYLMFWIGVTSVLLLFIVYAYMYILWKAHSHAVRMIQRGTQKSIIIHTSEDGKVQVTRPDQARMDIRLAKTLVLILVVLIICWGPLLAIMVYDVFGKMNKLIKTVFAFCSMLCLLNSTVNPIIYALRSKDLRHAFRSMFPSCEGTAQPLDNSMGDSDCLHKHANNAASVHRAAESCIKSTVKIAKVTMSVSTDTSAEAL

By solubility is commonly meant the concentration that dissolves in the medium under given conditions. On to `C/C(N)=N\C(=N/S(=O)(=O)c1ccc(C(F)(F)F)cc1)N1CC(c2ccccc2)C(c2ccc(Cl)cc2)=N1` (racemic) [rac-1, (1E,NE)-N-(1-aminoethylidene)-3-(4-chlorophenyl)-4-phenyl-N′-((4-(trifluoromethyl)phenyl)sulfonyl)-4,5-dihydro-1H-pyrazole-1-carboximidamide], for which the solubility in data set [1] is ~1000 µg/mL (≈ 1820 µM).
Take `C/C(N)=N\C(=N\S(=O)(=O)c1ccc(C(F)(F)F)cc1)N1C[C@H](c2ccccc2)C(c2ccc(Cl)cc2)=N1` [(S)-1, (S,1E,NE)-N-(1-aminoethylidene)-3-(4-chlorophenyl)-4-phenyl-N′-((4-(trifluoromethyl)phenyl)sulfonyl)-4,5-dihydro-1H-pyrazole-1-carboximidamide]: the antifibrotic effect entry in data set [2] is recorded as “antifibrotic effect”. Besides, the food intake entry at CB1R is “reduction of food intake”.
